Assay results from patent US4518611A, “2-Furylbutyrolactone modulation of the immune system in mammals” (priority 1983, dated 1985).

System: spleen lymphocytes
Assay: Lymphocyte stimulation assay after in vivo treatment, C57BL/6 mice
Details: 4 days
Procedure: The purpose of this assay is to challenge lymphocytes in microcultures with one or more polyclonal mitogens at concentrations that will induce mitogenesis within 72 hours of stimulation.
In the mouse model, spleens are removed from different strains of mice and the spleen cells are teased free and suspended in RPMI-1640 tissue culture medium at a concentration of usually […]. These cells are dispensed at a concentration of 5.0×10^5 cells per microculture well in a 96 well flat bottom 96 well tissue culture plate. All testing of the compounds of this invention or mitogens are done in replicates of 10. The cells are then treated with PHA, Con-A, specific antigens, or buffer only. If in vitro testing is done, varying concentrations of the compounds of this invention or buffer only are added to the cells as well. After treatment with the mitogens and/or compounds of this invention, the cells are incubated for 72 hours. The response of these cells to mitogens and/or the compounds of this invention is assessed using ^14 C-thymidine labeling on the fourth day at a concentration of 0.01 μCi/well. The labeled cells are harvested using a lymphocyte harvestor and placed onto fibrous paper discs. A scintillation cocktail is added to vials containing the discs and the results are obtained using a LKB-liquid scintillation counter (Model 1216/Rackbeta II). The data is expressed as a ratio of the cpm of the mitogen stimulated group to the control (nonmitogen) treated group=lymphocyte stimulation index (LSI).
The lymphocyte stimulation assay may be performed directly on spleen cells obtained from various strains of mice not treated with the compounds of this invention or on lymphocytes obtained from human […]. […] Alternatively, the mice may be treated in vivo with the compounds of this invention by intraperitoneal multi-dose schedules, followed by sacrifice and harvesting spleen lymphocytes. These cells are then tested for their response to polyclonal mitogens or specific antigens used to immunize the mice. In this system however, no additional compound is added to the in vitro lymphocyte stimulation assay system.
Two strains of mice, C57BL/6 and BDF1 are treated for seven days with i.p. administration of either 25, 50, 100, 200, or 400 mg/kg of Cpd. 1 or just buffer. This is followed on the eighth day by a lymphocyte stimulation assay.
A comparison is made of the lymphocyte response of C57BL/6 mice treated 4 days with i.p. administration of either 50, 100, 200, 400 or 800 mg/kg of Cpd. 1, 50, 100, 200, 400 or 800 mg/kg of ascorbic acid (AA), or just buffer. This is followed on the fifth day by a lymphocyte stimulation assay.
Two strains of mice, C57BL/6 and BALB/c, are treated 4 days with i.p. administration of either 50, 100, 200, or 400 mg/kg of Cpd. 1, or just buffer. This is followed on the fifth day by a lymphocyte stimulation assay.
C57BL/6 mice were treated with four daily i.p. doses of either 50, 100, 200, or 400 mg/kg of Cpd. 1 or just buffer. On the fifth day a lymphocyte stimulation assay was performed.
Mice of the C57BL/6 strain were tested with i.p. administration of either 100, 200, 400 or 600 mg/kg of Cpd. 1 or just buffer. This was followed by removal of spleens and treatment of lymphocytes therein with mitogens PHA and Con-A.
The compound of Example 2, Cpd. 2, was tested in vivo by using C57BL/6 mice and treating them with […] or just buffer for four consecutive days by the i.p. route. On the fifth day a lymphocyte stimulation assay was performed.

For “2-furylbutyrolactone:succinimide [Cpd. 2]”, the “Lymphocyte Stimulation Index, Con-A” value (50 mg/kg i.p.) was 96.1, the “Lymphocyte Stimulation Index, Control (no mitogen)” value (50 mg/kg i.p.) was “.88” and the “Lymphocyte Stimulation Index, PHA” value (50 mg/kg i.p.) was 15.5. For the same substance, the “Lymphocyte Stimulation Index, Con-A” value (100 mg/kg i.p.) was 105, the “Lymphocyte Stimulation Index, Control (no mitogen)” value (100 mg/kg i.p.) was 1.5 and the “Lymphocyte Stimulation Index, PHA” value (100 mg/kg i.p.) was 15.4. For the same substance, the “Lymphocyte Stimulation Index, Con-A” value (200 mg/kg i.p.) was 99.3, the “Lymphocyte Stimulation Index, Control (no mitogen)” value (200 mg/kg i.p.) was “.69” and the “Lymphocyte Stimulation Index, PHA” value (200 mg/kg i.p.) was 11.3. For the same substance, the “Lymphocyte Stimulation Index, Con-A” value (400 mg/kg i.p.) was 109, the “Lymphocyte Stimulation Index, Control (no mitogen)” value (400 mg/kg i.p.) was 1.3 and the “Lymphocyte Stimulation Index, PHA” value (400 mg/kg i.p.) was 12.9. The “Lymphocyte Stimulation Index, Con-A” value (600 mg/kg i.p.) was 94.0, the “Lymphocyte Stimulation Index, Control (no mitogen)” value (600 mg/kg i.p.) was 1.5 and the “Lymphocyte Stimulation Index, PHA” value (600 mg/kg i.p.) was 15.8. For the same substance, the “effect on Con-A response (in words)” value (i.p., Con-A) was “only marginal stimulation of Con-A mitogenesis” and the “effect on PHA response (in words)” value (i.p., PHA) was “no effect on PHA mitogenesis”.
